IC50 and inhibition data for 15 molecules are collected here from patent US12110299B2, “Thiazole derivatives and pharmaceutically acceptable salts thereof” (YUNGJIN PHARM. CO., LTD., priority 2018, dated 2024).

Assay [1] addresses recombinant purified human CDK7 kinase (Homo sapiens (Human), UniProt P50613). The assay is described as follows: CDK7 kinase-inhibitory activity, ADP-Glo kinase assay. Type of assay: biochemical. The conditions noted are these: ATP 90 µM, MBP substrate, 2 hours at 30° C., read-out: CDK7 inhibition(IC50 nM). The procedure: Representative compounds of the present invention were assayed in vitro for CDK7 kinase-inhibitory activities using ADP-Glo platform. In detail, CDK7 kinase-inhibitory activity was measured using recombinant purified human CDK7 kinase (ThermoFisher, PV3868) and ADP Glo kinase assays kit (Promega, V9102). CDK7 kinase was diluted with 1× kinase reaction buffer (40 mM Tris-C1, pH 7.5, 20 mM MgCl2, 0.1 mg/ml BSA and 50 [M DTT) and added to 96 well plates (final concentration of CDK7 per reaction: 50 ng). The compound was finally treated to be a 1% DMSO aqueous solution, and a substrate cocktail containing ATP (final concentration of 90 [M) and 0.2 μg/μl of MBP (Myelin basic protein) in a total of 25 μl of reaction mass was added to 96 well plates, thereby initiating an enzymatic reaction. After 2 hours of incubation (30° C.), equivalent volume (25 μl per reaction) of ADP Glo was added and incubated (30° C.) at room temperature for 60 minutes. The kinase detection reagent (50 μl per reaction) was then added and incubated (30° C.) at room temperature for 30 minutes. The kinase activity was measured by chemiluminescence method according to ADP Glo Kanease Assay Kit instruction manual, and the CDK7-inhibitory activity of the compounds according to the present invention was calculated. The result analysis of each compound was performed using Microsoft Excel, and IC50 values were calculated by Prism software.
In general terms: ADP-Glo first removes unused ATP, then detects ADP through luciferase.

Assay [2] relates to MDA-MB-468 cells. The experiment in a line: Anti-proliferative effect on MDA-MB-468 cells, IC50 (MTT). It counts as cell-based.
Experimental: The compounds of the present invention were tested at different concentrations (from 1000 nM to 1 nM) to assess their ability for inhibiting the proliferation of MDAMB-468 cells. Cells were cultivated in RPMI 1640 (Welgene)+10% FBS (Gibco)+1% penicillin/streptomycin (Gibco) and cultured at 37° C. in a humidified chamber in the presence of 5% C02.
MDA-MB-468 cells cultured in 96-well cell culture plates were treated with the compounds of the present invention and incubated for 72 hours.
Assay [3] deals with CDK2 (Homo sapiens (Human), UniProt P24941). The experiment in a line: scanMAX Kinase Assay Panel, CDK2. It counts as binding. The conditions noted are these: read-out: % inhibition at 1 uM CDK2, compound at 1 uM. As for the experimental part: (§1) The assay (scanMAX Kinase Assay Panel) was performed. […] Kinase Assay Panel contains a set of 468 kinases including CDK2, CDK5. The compounds were screened at 1 [M, and results for binding interactions are reported compared to control (%).

In assay [4] the target is CDK5 (Homo sapiens (Human), UniProt Q00535). The experiment in a line: scanMAX Kinase Assay Panel, CDK5. Type of assay: binding. The conditions noted are these: read-out: % inhibition at 1 uM CDK5, compound at 1 uM. The procedure:
as §1

The target in assay [5] is CDK7 (Homo sapiens (Human), UniProt P50613). The experiment in a line: scanMAX Kinase Assay Panel, CDK7. It counts as binding. The conditions noted are these: read-out: % inhibition at 1 uM CDK7, compound at 1 uM. The procedure:
as §1

For assay [6], the system named is HepG2 cells. The experiment in a line: HepG2 cell viability assay (CCK-8). It counts as cell-based, human. The procedure: The ability to inhibit the proliferation of HepG2 cells, which are human hepatocellular carcinoma cells, was measured through the in vitro cell viability assay. Cells were cultured at 37° C. in a humidified condition in the presence of 5% CO2 using a culture medium of MEM (Welgene)+10% FBS (Gibco)+1% penicillin/streptomycin (Gibco). […] Cell viability was measured by CCK-8 method using tetrazolium salt, and the ability of the compounds according to the present invention to inhibit cancer cell proliferation was calculated.

Assay [7] relates to MDA-MB-468 cells. The assay is described as follows: Anti-proliferative effect on MDA-MB-468 cells, inhibition rate at 100 nM (tetrazolium salt method). It counts as cell-based. The conditions noted are these: Homo sapiens, 72 hours.
Experimental: Representative compounds of the present invention were tested at different concentrations (from 1000 nM to 25 nM) to assess their ability to inhibit the proliferation of MDA-MB-468 cells. Cells were grown in RPMI 1640 (Welgene)+10% FBS (Gibco)+1% penicillin/streptomycin (Gibco) and cultured at 37° C. in a humidified chamber in the presence of 5% CO2.
MDA-MB-468 cells cultured in 96-well cell culture plates were treated with representative compounds of the present invention and cultured for 72 hours.

Chain of recombinant purified human CDK7 kinase (P50613 whole entry): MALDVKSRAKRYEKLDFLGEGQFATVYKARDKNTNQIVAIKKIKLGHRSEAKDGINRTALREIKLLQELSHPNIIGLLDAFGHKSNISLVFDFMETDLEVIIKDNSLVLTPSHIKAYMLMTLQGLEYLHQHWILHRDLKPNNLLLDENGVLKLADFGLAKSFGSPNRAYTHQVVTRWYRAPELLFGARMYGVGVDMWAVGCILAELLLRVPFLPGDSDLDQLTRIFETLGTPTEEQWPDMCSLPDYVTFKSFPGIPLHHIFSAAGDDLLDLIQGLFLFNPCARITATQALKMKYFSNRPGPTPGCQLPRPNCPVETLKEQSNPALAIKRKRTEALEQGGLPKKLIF
Chain of recombinant purified human CDK7 kinase (P51946 whole entry partner): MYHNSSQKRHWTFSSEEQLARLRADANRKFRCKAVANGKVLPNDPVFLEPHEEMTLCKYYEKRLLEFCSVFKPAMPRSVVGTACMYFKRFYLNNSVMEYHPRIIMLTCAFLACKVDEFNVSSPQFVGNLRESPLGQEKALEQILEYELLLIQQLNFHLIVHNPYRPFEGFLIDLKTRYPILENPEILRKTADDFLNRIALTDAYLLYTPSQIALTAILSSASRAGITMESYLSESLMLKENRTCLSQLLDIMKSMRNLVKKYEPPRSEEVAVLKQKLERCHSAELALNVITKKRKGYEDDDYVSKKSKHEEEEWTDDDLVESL
Chain of recombinant purified human CDK7 kinase (P51948 whole entry partner): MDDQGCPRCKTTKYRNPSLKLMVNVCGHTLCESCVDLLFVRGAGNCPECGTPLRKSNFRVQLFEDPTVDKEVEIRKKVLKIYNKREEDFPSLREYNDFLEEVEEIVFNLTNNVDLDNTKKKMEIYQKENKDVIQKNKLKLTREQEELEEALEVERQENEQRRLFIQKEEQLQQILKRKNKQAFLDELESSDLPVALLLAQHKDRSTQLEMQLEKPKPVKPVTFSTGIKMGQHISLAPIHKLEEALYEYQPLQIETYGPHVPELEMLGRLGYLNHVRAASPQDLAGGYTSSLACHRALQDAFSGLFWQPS
Chain of CDK7 (P50613 whole entry): as the sequence (P50613 whole entry) above
Chain of CDK5 (Q00535 whole entry): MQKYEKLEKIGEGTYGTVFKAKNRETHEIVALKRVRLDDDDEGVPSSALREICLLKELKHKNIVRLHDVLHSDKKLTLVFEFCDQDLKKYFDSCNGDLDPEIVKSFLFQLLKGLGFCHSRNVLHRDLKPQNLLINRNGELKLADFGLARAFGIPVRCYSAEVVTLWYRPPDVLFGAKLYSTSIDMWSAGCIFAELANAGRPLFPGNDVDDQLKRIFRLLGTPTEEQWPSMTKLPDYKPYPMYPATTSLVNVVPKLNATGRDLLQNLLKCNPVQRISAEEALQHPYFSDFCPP

Consider `C[C@H](C(=O)Nc1ncc(N(C)C)s1)c1cccc(-c2cnc(NC(=O)/C=C/CN(C)C)cn2)c1` [Example 106, (S,E)-4-(dimethylamino)-N-(5-(3-(1-((5-(dimethylamino)thiazol-2-yl)amino)-1-oxopropan-2-yl)phenyl)pyrazin-2-yl)but-2-enamide], for which, in assay [1], the 50% inhibitory concentration (IC50) (in general, the point on the concentration scale where inhibition reaches its midpoint) is 71 nM.

Turning to `CC(C(=O)Nc1ncc(Cl)s1)c1cncc(-c2cnc(NC(=O)/C=C/CN(C)C)cn2)c1` (centres unmarked) [Example 73, (E)-N-(5-(5-(1-((5-chlorothiazol-2-yl)amino)-1-oxopropan-2-yl)pyridin-3-yl)pyrazin-2-yl)-4-(dimethylamino)but-2-enamide], the IC50 in assay [1] was 43 nM; in assay [2] (Homo sapiens, MDA-MB-468, 72 h), 35 nM.

With `C[C@H](C(=O)Nc1ncc(C(F)(F)F)s1)c1cccc(-c2cnc(NC(=O)/C=C/CN3CCN(C)CC3)cn2)c1` [Example 95, (S,E)-4-(4-methylpiperazin-1-yl)-N-(5-(3-(1-oxo-1-((5-(trifluoromethyl)thiazol-2-yl)amino)propan-2-yl)phenyl)pyrazin-2-yl)but-2-enamide], the IC50 worked out at 80 nM in assay [1] and 57 nM in assay [2] (Homo sapiens, MDA-MB-468, 72 h).

In the case of `CCc1cnc(NC(=O)[C@@H](C)c2cccc(-c3cnc(NC(=O)/C=C/CN(C)C)c(C#N)c3)c2)s1` [Example 121, (S,E)-N-(3-cyano-5-(3-(1-((5-ethylthiazol-2-yl)amino)-1-oxopropan-2-yl)phenyl)pyridin-2-yl)-4-(dimethylamino)but-2-enamide], the half-inhibitory concentration (IC50) in assay [1] came to 7 nM; in assay [2] (Homo sapiens, MDA-MB-468, 72 h) it was 23 nM; in assay [6] (Homo sapiens, HepG2, 72 h), 3 nM. In addition, the inhibition – broadly, the percentage by which the read-out fell short of the control – at 1 µM was determined as 20% in assay [3], 30% in assay [4] and 99% in assay [5].

For the molecule `C=CC(=O)Nc1cnc(-c2cccc([C@H](C)C(=O)Nc3ncc(C(F)(F)F)s3)c2)cn1` [Example 37, (S)-N-(5-(3-(1-oxo-1-((5-(trifluoromethyl)thiazol-2-yl)amino)propan-2-yl)phenyl)pyrazin-2-yl)acrylamide], the IC50 in assay [1] was determined as 17 nM; in assay [2] (Homo sapiens, MDA-MB-468, 72 h), 40 nM; in assay [6] (Homo sapiens, HepG2, 72 h) it was 8 nM. Moreover, the inhibition at 0.1 µM in assay [7] is 60%.

As to `C=CC(=O)Nc1cnc(-c2cncc([C@H](C)C(=O)Nc3ncc(C(F)(F)F)s3)c2)cn1` [Example 52, (S)-N-(5-(5-(1-oxo-1-((5-(trifluoromethyl)thiazol-2-yl)amino)propan-2-yl)pyridin-3-yl)pyrazin-2-yl)acrylamide], the half-inhibitory concentration (IC50) in assay [1] stood at 19 nM. In addition, in assay [7], the inhibition at 0.1 µM is 72%.

On to `CC(C(=O)Nc1ncc(C(F)(F)F)s1)c1cncc(-c2cnc(NC(=O)/C=C/CN(C)C)cn2)c1` (centres unmarked) [Example 63, (E)-4-(dimethylamino)-N-(5-(5-(1-oxo-1-((5-(trifluoromethyl)thiazol-2-yl)amino)propan-2-yl)pyridin-3-yl)pyrazin-2-yl)but-2-enamide], for which the IC50 in assay [1] was 17 nM; in assay [2] (Homo sapiens, MDA-MB-468, 72 h) it was 20 nM; in assay [6] (Homo sapiens, HepG2, 72 h) it was 2 nM.

Take `C[C@H](C(=O)Nc1ncc(C(F)(F)F)s1)c1cccc(-c2cnc(NC(=O)/C=C/CN(C)C)c(C#N)c2)c1` [Example 101, (S,E)-N-(3-cyano-5-(3-(1-oxo-1-((5-(trifluoromethyl)thiazol-2-yl)amino)propan-2-yl)phenyl)pyridin-2-yl)-4-(dimethylamino)but-2-enamide]: the IC50 was 7 nM in assay [1]; 30 nM in assay [2] (Homo sapiens, MDA-MB-468, 72 h); 5 nM in assay [6] (Homo sapiens, HepG2, 72 h). Moreover, the inhibition at 1 µM in assay [3] was 26%; in assay [4], 22%; in assay [5], 99%.

With `C[C@H](C(=O)Nc1ncc(C(F)(F)F)s1)c1cccc(-c2cnc(NC(=O)/C=C/CN3CCC(O)C3)cn2)c1` (stereo partly drawn) [Example 119, (E)-4-(3-hydroxypyrrolidin-1-yl)-N-(5-(3-((S)-1-oxo-1-((5-(trifluoromethyl)thiazol-2-yl)amino)propan-2-yl)phenyl)pyrazin-2-yl)but-2-enamide], the IC50 in assay [1] was determined as 9 nM; in assay [2] (Homo sapiens, MDA-MB-468, 72 h), 44 nM.

Consider `C=CC(=O)Nc1cnc(-c2cncc(C(C)C(=O)Nc3ncc(C(F)(F)F)s3)c2)cn1` (centres unmarked) [Example 45, N-(5-(5-(1-oxo-1-((5-(trifluoromethyl)thiazol-2-yl)amino)propan-2-yl)pyridin-3-yl)pyrazin-2-yl)acrylamide], for which the IC50 in assay [1] stood at 22 nM; in assay [2] (Homo sapiens, MDA-MB-468, 72 h) it was 10 nM; in assay [6] (Homo sapiens, HepG2, 72 h) it was 8 nM. Besides, the inhibition at 0.1 µM in assay [7] amounted to 59%.

With `C[C@H](C(=O)Nc1ncc(C(F)(F)F)s1)c1cccc(-c2cnc(NC(=O)/C=C/CN(C)C)cn2)c1` [Example 91, (S,E)-4-(dimethylamino)-N-(5-(3-(1-oxo-1-((5-(trifluoromethyl)thiazol-2-yl)amino)propan-2-yl)phenyl)pyrazin-2-yl)but-2-enamide], the figures for the IC50 in assay [1], in assay [2] (72 hours) and in assay [6] (72 hours) were 8 nM, 38 nM and 9.5 nM, respectively.

On to `CCc1cnc(NC(=O)[C@@H](C)c2cccc(-c3cnc(NC(=O)/C=C/CN(C)C)c(F)c3)c2)s1` [Example 130, (S,E)-4-(dimethylamino)-N-(5-(3-(1-((5-ethylthiazol-2-yl)amino)-1-oxopropan-2-yl)phenyl)-3-fluoropyridin-2-yl)but-2-enamide], for which the half-maximal inhibitory concentration (IC50) in assay [1] was 8 nM; in assay [2] (Homo sapiens, MDA-MB-468, 72 h), 18 nM; in assay [6] (Homo sapiens, HepG2, 72 h) it was 3.8 nM.

Consider `C[C@H](C(=O)Nc1ncc(C(F)(F)F)s1)c1cccc(-c2cnc(NC(=O)/C=C/CN3CC[C@H](F)C3)cn2)c1` [Example 117, (E)-4-((S)-3-fluoropyrrolidin-1-yl)-N-(5-(3-((S)-1-oxo-1-((5-(trifluoromethyl)thiazol-2-yl)amino)propan-2-yl)phenyl)pyrazin-2-yl)but-2-enamide], for which the IC50 in assay [1] came to 15 nM; in assay [2] (Homo sapiens, MDA-MB-468, 72 h), 56 nM.

For `C[C@H](C(=O)Nc1ncc(C(F)(F)F)s1)c1cccc(-c2ccc(NC(=O)/C=C/CN(C)C)nc2)c1` [Example 116, (S,E)-4-(dimethylamino)-N-(5-(3-(1-oxo-1-((5-(trifluoromethyl)thiazol-2-yl)amino)propan-2-yl)phenyl)pyridin-2-yl)but-2-enamide], the IC50 in assay [1] was determined as 13 nM; in assay [2] (Homo sapiens, MDA-MB-468, 72 h), 65 nM.

As for `CCc1cnc(NC(=O)[C@@H](C)c2cccc(-c3cnc(NC(=O)/C=C/CN(C)C)c(C)c3)c2)s1` [Example 125], the IC50 in assay [1] was determined as 13 nM; in assay [2] (Homo sapiens, MDA-MB-468, 72 h) it was 33 nM.
